Among the data in a melting point compilation (Tetko et al.; mined from patent text by program, amines drawn as free bases though some values may be those of a salt) are melting point values, retold here.

As a reminder, the melting point is the temperature, or range, at which the solid turns liquid. Turning to `CON=Cc1ccc(N2C(=O)C(O)=C(C(=O)c3ccc(OC)cc3)C2c2ccccc2)cc1` (centres undefined), the melting point was in the range of 226 to 229 °C.

Turning to `CCOCCn1c(NC2CCN(C(=O)c3cc(C(F)(F)F)cc(C(F)(F)F)c3)C(Cc3ccccc3)C2)nc2ccccc21` (centres undefined), the melting point turned out to be 178 °C.

As for `CC(=O)OC1CSC(Oc2c(C)ccnc2Cl)C(OC(C)=O)C1OC(C)=O` (centres undefined), the melting point came to 144 °C.

Regarding `COC(=O)c1nn(-c2ccc(Cl)cc2Cl)c(-c2ccc(Cl)cc2)c1C`, the melting point was found to be 133 °C.

As to `CC(C)CCN1C(=O)C2(COc3cc4c(cc32)OCCO4)c2ccccc21` (centres undefined), the melting point lay in the range of 134 to 137 °C.

`CCCn1nc2c(N)nc3ccccc3c2c1CCCCC(=N)NO` returned a melting point of 222 to 224 °C.

Regarding `CCNC(=O)c1ccccc1OC(C)(C)C`, the melting point fell in the range of 34.5 to 36 °C.

Compound `CC(C)Oc1ccc(-c2nn(C(C)c3oc4cccc(N5CCOCC5)c4c(=O)c3-c3cccc(F)c3)c3ncnc(N)c23)cc1F` (centres undefined) registered a melting point of 227 to 229 °C.

`NC(CC(c1ccccc1)c1ccccc1)(C(=O)O)C1CC(C(=O)O)(C(=O)O)C1` (centres undefined) registered a melting point of 182 to 185 °C.

`CS(=O)(=O)Nc1c(-c2cc(Cl)ccc2O)c2cc(C(F)(F)F)ccc2[nH]c1=O` showed a melting point of 263 to 265 °C.

For the compound `Cc1ccc(NC(=O)c2ccc(CN3CCOCC3)c(C(F)(F)F)c2)cc1-c1ccc2cnncc2c1`, the melting point was 160 to 162 °C.

Compound `COc1ccc(-c2cc3ccccc3[nH]2)c(C)c1` came in with a melting point of 131 °C.

In the case of `COC12CC(CNC(=S)NC(C)=O)CN(C)C1Cc1c[nH]c3cccc2c13` (centres undefined), the melting point was 212 to 214 °C.

In the case of `CC(CS)C(=O)N1CCCC1C(=O)NC(C)C(=O)O` (centres undefined), the melting point is 128 to 130 °C.

Compound `CC(C)OC(=O)C(C(=O)O)c1ccccc1` (centres undefined) showed a melting point of 64 to 66 °C.

Take `Cc1cccc(C(=O)Nc2ccc(N3CCN(Cc4cccc(C#N)c4)CC3)cc2)c1-c1ccc(C(F)(F)F)cc1`: the melting point was found to be 192 °C.

`Cc1sc2[nH]c(=S)nc(N)c2c1C` had a melting point of over 260 °C.

The compound `O=C(O)CC1(CCl)OCCO1` registered a melting point of 64 to 65 °C.

Turning to `CCCCOCc1cc(-n2nc(C(N)=O)nc2-c2ccccc2)ccc1Cl`, the melting point was in the range of 96 to 98 °C.

`CC(O)(c1ccsc1)c1nccs1` (centres undefined) displayed a melting point of 120 to 122 °C.

Turning to `CCOC1(OCC)CCC(C#N)(CC#N)CC1`, the melting point was 74 to 75 °C.

For `COc1cc(CNC(=O)c2nc3scc(COCc4ccc(C(=O)O)cc4)c3c(=O)[nH]2)ccc1F`, the melting point is 225 to 226 °C.

`CCCOc1cccc(CCOc2ccc3c(c2)C=C(C(=O)Nc2ccc(CN(C)C4CCOCC4)cc2)CCS3(=O)=O)c1` had a melting point of 153 to 154 °C.

Take `COCCCc1cc(N(C)Cc2sc(-c3ccc(C(F)(F)F)cc3)nc2C)ccc1OCC(=O)O`: the melting point lay in the range of 142 to 143 °C.

Turning to `N#Cc1cc(-n2nnnc2C(F)(F)F)ccc1OC(F)(F)F`, the melting point was 65 to 67 °C.

Turning to `Cc1ccc(O)c(C(=O)OCC=Cc2ccccc2)c1`, the melting point was 178 to 179 °C.

As for `CC(C)C(NC=O)C(=O)O` (centres undefined), the melting point is 143 to 145 °C.

`CCCN(C)C1CCc2c(cccc2NC(C)=O)C1` (centres undefined) gave a melting point of 78 °C.

In the case of `CCC1N=C(c2ccccc2Cl)c2cc(CCC(=O)OC)sc2-n2c(C)nnc21` (centres undefined), the melting point is 126 to 127 °C.

As for `CCOC(=O)c1cn2c(cc(OC(C)C)c3ccccc32)n1`, the melting point is 127 to 129 °C.

`O=C(NC1CCCC1)c1cccc(-c2ccnc3c(C(=O)c4cccs4)cnn23)c1` returned a melting point of 207 to 209 °C.

In turn, `Cc1ccccc1NC(=O)C1CCc2nc[nH]c2C1` (centres undefined) returned a melting point of 100 to 105 °C.

As for `O=Cc1cccc2c1OC(c1ccccc1)CC2=O` (centres undefined), the melting point was in the range of 112 to 113 °C.

Compound `O[C@@H]1CNCC[C@H]1Sc1ccccc1` (relative stereo) yielded a melting point of 135 to 136 °C.

The compound `Cc1cc(Cc2ccccc2)c(NC(=O)OCc2ccccc2)c(=O)n1CC(=O)O` returned a melting point of 158 to 160 °C.

With `N#Cc1ccn(O)c1-c1ccc(Cl)cc1`, the melting point was in the range of 148 to 150 °C.

Compound `COc1ccc(C(O)CN2CCNC2=S)cc1` (centres undefined) showed a melting point of 110 °C.

`O=C(N[C@@H](CO)C(=O)NCCc1ccccc1)c1ccc(C(=O)c2cccnc2)cc1` displayed a melting point of 85 to 90 °C.

On to `C=CC(=O)Oc1c(Br)c(Br)c(Br)c(Br)c1OC(=O)C=C`, for which the melting point was in the range of 135 to 137 °C.

`NC1Cc2cccc3c2C(C1)CN3C(=O)c1ccccc1` (centres undefined) yielded a melting point of 118 to 120 °C.

Turning to `CC(=O)C1=C(O)C(=C(C)Nc2cccc(NC(=O)C(O)CO)c2)C(=O)OC1=O` (centres undefined), the melting point is 218 °C.

As to `CC(C(=O)O)c1ccc(-c2ccc(F)cc2F)c(F)c1` (centres undefined), the melting point was 105 to 108 °C.

`CC(=O)c1ccsc1C(=O)O` gave a melting point of 155 to 156 °C.

`CC#CN(C)c1nc2ccccc2s1`: the melting point fell in the range of 58 to 59 °C.

Turning to `O=C(Nc1cccnn1)N1CCN(c2nccc(-c3cc(F)ccc3F)n2)CC1`, the melting point lay in the range of 271 to 272 °C.

Compound `CN(C)c1nc2cc(Cl)c(Cl)cc2n1C1CC(CO)C(O)C1O` (centres undefined) came in with a melting point of 190 to 193 °C.

With `Clc1nc(NCc2ccc3c(c2)OCO3)c2c3c(sc2n1)CCCC3`, the melting point amounted to 222 °C.

Consider `CC(=O)OCC1CCn2c(c(C3=C(c4cccc(C(F)(F)F)c4)C(=O)OC3=O)c3ccccc32)C1` (centres undefined), for which the melting point lay within 176 to 177 °C.

For `CC1(C(=O)O)CC1(F)F` (centres undefined), the melting point was in the range of 59 to 61 °C.

Compound `CCCCc1ccc(C(=O)NCCCCn2c(CCOC)nc3c(N)nc4ccccc4c32)nc1` returned a melting point of 54.9 to 55.2 °C.

As for `O=C(C(=O)N1C(=O)CC[C@H]1C(=O)O)c1ccccc1`, the melting point lay within 151 to 152 °C.

For `c1cc2c(cc1N1CCNCC1)OCCO2`, the melting point worked out at 138 °C.

Regarding `CC(=O)c1c(C)c(NC(=O)OCC(Cl)(Cl)Cl)c(C)c2c1OCC2c1ccc(C(C)C)cc1` (centres undefined), the melting point was in the range of 186 to 189 °C.

`CSc1cnc(NC(=O)C(Cc2ccc(F)cc2)c2ccc(S(C)(=O)=O)cc2)cn1` (centres undefined): the melting point turned out to be 188 °C.

With `CNC(=O)CC1=CSC2=C(C(=O)OC(C)C)C(C)CN12` (centres undefined), the melting point is 203 to 205 °C.

With `COC1CC(C)(OCc2ccccc2)C2COC1O2` (centres undefined), the melting point fell in the range of 45 to 46 °C.

`Cc1cc(C(=O)CC(O)(c2cc(Cl)cc(Cl)c2)C(F)(F)F)ccc1Br` (centres undefined) displayed a melting point of 141 to 142 °C.

For the compound `NC(C(=O)O)c1ccc(C(=O)O)cc1F` (centres undefined), the melting point lay in the range of 250 to 255 °C.

Compound `COc1ccc2c(c1)CCC1C2CCC2(C)C(NC=O)CCC12` (centres undefined) had a melting point of 252 to 253 °C.

Take `Cc1c(Cc2ccc(C(C)C)cc2)c2c(c(C)c1NC(=O)CC(C)(C)C)CC(C)O2` (centres undefined): the melting point was 179 to 180 °C.

Take `CC=CC(=O)CS(=O)(=O)C(c1ccc(Cl)cc1)c1ccc(Cl)cc1`: the melting point was in the range of 114 to 116 °C.

The compound `COc1cccc(C(N)c2sccc2S(=O)(=O)Nc2onc(C)c2Br)c1` (centres undefined) had a melting point of 70 to 73 °C.

The compound `O=C(Oc1ccccc1Br)c1cc(I)c[nH]1` registered a melting point of 126 to 127 °C.

For `CC(F)(F)c1cccc(C(=O)O)c1`, the melting point lay within 96 to 97 °C.

With `COC(=O)CCC1=NC=C(c2ccc3c(c2)NC(=O)CO3)C(c2ccccc2)S1` (centres undefined), the melting point lay in the range of 119 to 121 °C.

On to `O=C1Nc2cc(Cl)ccc2Sc2cscc21`, for which the melting point lay within 267 to 269 °C.

Turning to `CCCCCCC#CCC#CCC#CCC#CCCCC(=O)NO`, the melting point fell in the range of 85 to 88 °C.

Take `CCOC(=O)N1Cc2ccccc2C2(Cc3ccccc3O2)C1` (centres undefined): the melting point lay in the range of 65 to 75 °C.

On to `N#Cc1ccc(-c2ccc(OCCCCCCO)cc2)cc1`, for which the melting point was in the range of 87 to 89 °C.

Compound `CCCCCCCCCCCCCCCSCCO` came in with a melting point of 44 to 46 °C.

In turn, `CCCCOc1ccc(CCCOc2c(CC(=O)O)cccc2OC)c(Oc2ccc(C(F)(F)F)cn2)c1` gave a melting point of 69 to 70 °C.

Compound `Cc1cc(C)nc(Oc2ccnc3cc(Cl)ccc23)n1` had a melting point of 104 to 105 °C.

For the compound `C#CCN(Cc1ccccc1)S(=O)(=O)c1ccc([N+](=O)[O-])cc1[N+](=O)[O-]`, the melting point is 91 to 92 °C.

`Cc1cccc(-c2[nH]c(C(C)C)nc2-c2ccc(F)c(-c3ccc(C(=O)NN4CCOCC4)cc3)c2)n1` registered a melting point of 153 to 155 °C.

In the case of `CCOC(=O)c1ccc(-c2nn(Cc3ccccc3)c3ccccc23)o1`, the melting point fell in the range of 98 to 99 °C.

`ON=Cc1c[nH]c2cccc(OCc3ccccc3)c12` had a melting point of 206 to 210 °C.

Consider `CC(C)c1ccc(O[C@@H](Cc2ccc(OCCNC(=O)c3ccc(-c4ccccn4)cc3)cc2)C(=O)O)cc1`, for which the melting point is 100 to 101 °C.

For `CCCOc1ccc(F)cc1-c1ccc(C(N)=O)c(=O)[nH]1`, the melting point lay within 223 to 224 °C.

`COc1cc2c(cc1C(F)(F)F)N(C(=O)Nc1ccc(C)c(-c3cnccc3C)c1)CC2` had a melting point of 138 to 140 °C.

`CCCn1nc(-c2ccc(Cl)c(Cl)c2)c(-n2ccnc2)c1SC` showed a melting point of 91 to 93 °C.

`CCC(COC)n1cnc2c(Nc3ccc(C(F)(F)F)cc3Br)nc(C)nc21` (centres undefined): the melting point was 123 to 124 °C.

`CCCCCCCCCCCCCCCCC[C@@H]1OC[C@@H](COCCCCCCCCOS(=O)(=O)c2ccc(C)cc2)O1` (relative stereo) gave a melting point of 45.9 to 50.8 °C.

Turning to `O=C1N(CC2COCCO2)c2ccccc2C12COc1cc3c(cc12)OCC3` (centres undefined), the melting point was 162 to 164 °C.

Take `CCN(C(=O)OC(C)(C)C)C(Cc1ccccc1)C(=O)NC(CCSC)C(=O)NCC(=O)NC(Cc1ccccc1)C(=O)NC1C2CC3CC(C2)CC1C3` (centres undefined): the melting point was in the range of 175 to 178 °C.

Turning to `COc1cc(OC)cc(C(=O)N2CCc3cc(O)c(OC)cc3C2=O)c1`, the melting point lay in the range of 198 to 199 °C.

As for `CCCCCCCCCCCCOC(=O)COCC(=O)O`, the melting point was in the range of 57 to 59 °C.

With `CC(=O)Nc1c(Cl)c(C(C)(C)C)nn1-c1c(Cl)cc(C(F)(F)F)cc1Cl`, the melting point came out at 211 °C.

In the case of `O=C(Nc1cccnn1)N1CCN(c2nccc(-c3ccc(F)cc3F)n2)CC1`, the melting point was 184 to 185 °C.

In turn, `COC(=O)c1ccccc1OCC(O)CNC(C)C` (centres undefined) returned a melting point of 78 to 79 °C.
